Key:
[1] = target: CYP3A4 (Homo sapiens, UniProt P08684); experiment: IC50 vs CYP3A by inhibition of lopinavir metabolism in human liver microsomes; format: biochemical; conditions: pH 7.4, human liver microsomes, 1.5 μM lopinavir, 8 min at 37° C., test concentrations 0.098-100 nM, read-out: 3A4(LPV)
Procedure: Determination of IC50 vs CYP3A by Measurement of Inhibition of Lopinavir Metabolism
This assay was performed in a standard 96-well plate design. IC50 values were calculated from the percent inhibition observed for each test compound at 6 concentrations (for example, 0.098, 0.391, 1.56, 6.25, 25 and 100 nM). The incubation substrate mix contains 1.5 μM lopinavir, 0.01 mg/mL protein human liver microsomes (BD Gentest), 1 mM NAPDH, 3.3 mM MgCl2 and 100 mM potassium phosphate buffer (pH 7.4). The production of the sum of three hydroxylated metabolites (M2: 6-hydroxy lopinavir, M3: 4-hydroxy lopinavir, M4: 4-hydroxy lopinavir (epimer of M3), Kumar et al., 1999) was determined after incubation for 8 min at 37° C. Quantitation of the metabolite peak area ratio against an internal standard (tolbutamide) was determined by LC/MS/MS analysis following acetonitrile treatment of the incubations.
(§1) Samples were analyzed in the MRM mode with a SCIEX API-4000 mass spectrometer (Applied Biosystems, Foster City, Calif.), with a Shimadzu LC-20 AD pump (Shimadzu corporation, Kyoto, JP) and a CTC PAL autosampler (Agilent Technologies, Switzerland). A Phenomenex, Luna, 5 μm, 100 A, 2.00×30 mm HPLC column was used for the separation. The mobile phases were: (A) 0.1% formic acid in water and (B) 0.1% formic acid in acetonitrile. The binary gradient was as follows.
(§2) The peak area ratio of the analyte to the internal standard was used to quantify the metabolite. The values of peak area ratios in the presence of test compound were compared to those of maximum or minimum controls and were expressed as % inhibition by interpolating between the maximum and minimum peak area ratios. Incubations with no inhibitor were defined as the maxima and with 5 μM ketoconazole were defined as the minima
(§3) The following equation was used to calculate the % inhibition:
(§4) [1−[(X−Low control)/(High control−Low control)]]*100
(§5) For the IC50 calculation, SigmaPlot was used to plot the mean % inhibition versus the test compound concentrations and for non-linear regression analysis of the data. Depending on the range of data points defining the inhibition curve, the data may have been fit to the 4-parameter logistic equation.

[2] = target: T1, CYP1A2 (Homo sapiens, UniProt P05177); experiment: Cocktail CYP assay, phenacetin O-deethylation; format: in vitro ADME; conditions: human liver microsomes, 10 μM phenacetin; test concentrations up to 10 μM
T1 construct: 0.1 mg/mL protein human liver microsomes (BD Gentest); tissue BD Gentest; host or cells: human liver microsomes
T1 sequence (P05177 1-516): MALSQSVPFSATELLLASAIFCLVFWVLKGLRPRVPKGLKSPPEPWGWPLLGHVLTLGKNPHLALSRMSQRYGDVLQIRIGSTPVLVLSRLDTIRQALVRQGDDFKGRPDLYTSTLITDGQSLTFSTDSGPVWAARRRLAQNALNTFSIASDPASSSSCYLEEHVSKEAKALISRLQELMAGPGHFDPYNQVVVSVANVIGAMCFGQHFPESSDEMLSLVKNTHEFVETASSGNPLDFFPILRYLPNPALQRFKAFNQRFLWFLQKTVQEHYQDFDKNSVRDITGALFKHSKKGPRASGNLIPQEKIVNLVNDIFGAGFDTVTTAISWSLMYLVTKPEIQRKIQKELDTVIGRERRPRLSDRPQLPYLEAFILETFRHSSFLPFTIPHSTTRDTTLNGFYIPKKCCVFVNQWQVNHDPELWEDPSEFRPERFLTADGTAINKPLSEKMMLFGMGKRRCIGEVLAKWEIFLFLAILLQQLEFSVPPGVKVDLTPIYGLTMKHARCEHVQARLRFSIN
Procedure: (§6) Determination of IC50 in a Cocktail Assay for CYPs 1A2, 2C9, 2C19, 2D6 and 3A4
(§7) This assay was performed in a standard 96-well plate design. IC50 values were calculated from the percent inhibition observed for each test compound at 6 concentrations (for example, 0.0032, 0.016, 0.08, 0.4, 2 and 10 μM). The incubation substrate mix contains 10 μM phenacetin (1A2), 5 μM diclofenac (2C9), 30 μM mephenyloin (2C19), 5 μM dextromethorphan (2D6) and 2 μM midazolam (3A4), 0.1 mg/mL protein human liver microsomes (BD Gentest), 1 mM NAPDH, 3.3 mM MgCl2 and 100 mM potassium phosphate buffer (pH 7.4). The production of the metabolite of each probe substrate was determined after incubation for 10 min at 37° C. Quantitation of the metabolite peak area ratio against an internal standard (tolbutamide) was determined by LC/MS/MS analysis following acetonitrile treatment of the incubations.
as §1, with “[…],” for “μm,”
as §2, with “maxima.” for “maxima and with 5 μM ketoconazole were defined as the minima”
as §3, §4, §5

[3] = target: T2, CYP2D6 (Homo sapiens, UniProt P10635); experiment: Cocktail CYP assay, dextromethorphan O-demethylation; format: in vitro ADME; conditions: human liver microsomes, 5 μM dextromethorphan; test concentrations up to 10 μM
T2 construct: 0.1 mg/mL protein human liver microsomes (BD Gentest); tissue BD Gentest; host or cells: human liver microsomes
T2 sequence (P10635 whole entry): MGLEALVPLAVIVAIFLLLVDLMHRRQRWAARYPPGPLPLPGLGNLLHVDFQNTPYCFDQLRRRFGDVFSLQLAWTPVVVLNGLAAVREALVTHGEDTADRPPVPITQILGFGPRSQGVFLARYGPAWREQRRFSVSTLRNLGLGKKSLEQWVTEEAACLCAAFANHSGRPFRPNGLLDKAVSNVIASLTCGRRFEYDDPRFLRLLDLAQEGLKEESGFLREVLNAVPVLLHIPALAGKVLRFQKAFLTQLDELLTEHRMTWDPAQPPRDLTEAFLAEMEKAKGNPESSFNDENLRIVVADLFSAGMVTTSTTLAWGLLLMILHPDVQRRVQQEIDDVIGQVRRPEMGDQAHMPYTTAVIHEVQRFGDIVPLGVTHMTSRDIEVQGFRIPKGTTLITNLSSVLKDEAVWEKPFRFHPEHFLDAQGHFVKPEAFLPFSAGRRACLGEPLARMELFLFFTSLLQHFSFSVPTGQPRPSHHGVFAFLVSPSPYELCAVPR
Procedure: as §6, §7
as §1, with “[…],” for “μm,”
as §2, with “maxima.” for “maxima and with 5 μM ketoconazole were defined as the minima”
as §3, §4, §5

CYP3A4, sequence (P08684 2-503): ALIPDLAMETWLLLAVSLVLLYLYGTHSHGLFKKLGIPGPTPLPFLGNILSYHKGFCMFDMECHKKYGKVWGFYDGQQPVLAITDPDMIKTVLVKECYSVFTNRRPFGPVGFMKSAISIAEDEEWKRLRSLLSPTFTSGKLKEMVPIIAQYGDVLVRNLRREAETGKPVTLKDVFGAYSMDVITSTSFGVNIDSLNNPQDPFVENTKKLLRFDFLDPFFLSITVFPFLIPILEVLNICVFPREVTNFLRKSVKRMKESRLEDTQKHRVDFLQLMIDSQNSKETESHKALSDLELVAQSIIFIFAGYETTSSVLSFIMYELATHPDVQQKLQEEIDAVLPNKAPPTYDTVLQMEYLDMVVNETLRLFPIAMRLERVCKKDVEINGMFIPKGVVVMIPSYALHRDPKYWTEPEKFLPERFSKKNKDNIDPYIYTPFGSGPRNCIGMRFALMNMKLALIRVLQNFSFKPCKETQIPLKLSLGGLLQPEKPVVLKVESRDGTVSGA

Row | SMILES | IC50 at 8 min [1] [µM] | IC50 [2] [µM] | IC50 [3] [µM]
1 | C[C@H](c1ccc(F)cc1)n1cncc1C1COCC2CN(S(=O)(=O)c3cnc(Nc4ccccn4)s3)CCN21 (stereo partly drawn) [Compound 40] | 0.0008 | > 10 | 2.89
2 | C[C@H](c1ccc(F)cc1)n1cncc1CN1CCN(S(=O)(=O)c2cnc(N3CCN(C)CC3)s2)CC1 [Compound 2] | 0.001 | > 10 | 8.01
3 | C[C@H](c1ccc(F)cc1)n1cncc1CN1CCN(S(=O)(=O)c2cncc(N3CCNCC3)c2)CC1 [Compound 29] | 0.0029 | > 10 | > 10
4 | C[C@H](c1ccc(F)cc1)n1cncc1CN1CCN(S(=O)(=O)c2cnc(N3CCN4C[C@H](O)CC4(C)C3)s2)CC1 (stereo partly drawn) [Compound 24] | 0.0019 | > 10 | 3.2
5 | C[C@H](c1ccc(F)cc1)n1cncc1CN1CCN(S(=O)(=O)c2cnc(N3CC[C@@H](N)[C@H](F)C3)s2)CC1 [Compound 11] | < 0.00098 | > 10 | > 10
6 | C[C@H](c1ccc(C#N)cc1)n1cncc1CN1CCN(S(=O)(=O)c2cnc(Nc3ccc(C(F)(F)F)cn3)s2)CC1 [Compound 4] | < 0.0001 | > 10 | 5.25
7 | C[C@H](c1ccc(F)cc1)n1cncc1CN1CCN(S(=O)(=O)c2cnc(N3CCN4CCC(O)[C@H]4C3)s2)CC1 (stereo partly drawn) [Compound 27] | 0.0026 | > 10 | 3.85
8 | C[C@H](c1ccc(F)cc1)n1cnnc1CN1CCN(S(=O)(=O)c2cnc(N3CCN4C[C@H](O)C[C@H]4C3)s2)CC1 [Compound 42] | 0.032 | > 10 | > 10
9 | C[C@H](c1ccc(F)cc1)n1cncc1CN1CCN(S(=O)(=O)c2cnc(N3CCN4C[C@H](O)C[C@@H]4C3)s2)CC1 [Compound 6] | 0.0014 | > 10 | > 10
10 | C[C@H](c1ccc(F)cc1)n1cncc1CN1CCN(S(=O)(=O)c2cnc(N3CCNCC3)cn2)CC1 [Compound 30] | 0.0036 | > 10 | 4.92
11 | C[C@H](c1ccc(F)cc1)n1cncc1CN1CCN(S(=O)(=O)c2cnc(N3CCN(C4CCN(C)CC4)CC3)s2)CC1 [Compound 9] | 0.0028 | > 10 | > 10
12 | CC1CN(c2ncc(S(=O)(=O)N3CCN(Cc4cncn4[C@H](C)c4ccc(F)cc4)CC3)s2)C[C@@H]2C[C@@H](O)CN12 (stereo partly drawn) [Compound 23] | 0.0016 | > 10 | 4.65
13 | C[C@H](c1ccc(F)cc1)n1cncc1CN1CCN(S(=O)(=O)c2cnc(N3C[C@@H]4C[C@@H](O)CN4C[C@@H]3C)s2)CC1 [Compound 21] | 0.0019 | > 10 | 6.18
14 | C[C@H](c1ccc(F)cc1)n1cncc1CN1CCN(S(=O)(=O)c2ccc(N3CCNCC3)cn2)CC1 [Compound 28] | 0.0044 | > 10 | 6.5
15 | CN1CCN(c2ncc(S(=O)(=O)N3CCN(Cc4cncn4CCOc4ccc(Cl)cc4)CC3)s2)CC1 [Compound 32] | 0.0012 | > 10 | 1.3
16 | C[C@H](c1ccc(F)cc1)n1cncc1CN1CCN(S(=O)(=O)c2cnc(N3CCC(N)(CO)CC3)s2)CC1 [Compound 25] | 0.0019 | > 10 | 8.35
17 | C[C@H](c1ccc(F)cc1)n1cncc1CN1CCN(S(=O)(=O)c2cnc(N3CCC4(CC3)CNC(=O)N4)s2)CC1 [Compound 3] | 0.0027 | > 10 | 2.7

More lines, now with the values ahead:

Row | IC50 at 8 min [1] [µM] | IC50 [2] [µM] | IC50 [3] [µM] | SMILES
18 | 0.0044 | > 10 | > 10 | Cc1ccc(C2(n3cncc3CN3CCN(S(=O)(=O)c4cnc(N5CCN(C)CC5)s4)CC3)CC2)nc1 [Compound 31]
19 | 0.0014 | > 10 | 2.78 | C[C@H](c1ccc(F)cc1)n1cncc1CN1CCN(S(=O)(=O)c2cnc(N3CCNCC3)s2)CC1 [Compound 1]
20 | 0.0015 | > 10 | > 10 | C[C@H](c1ccc(F)cc1)n1cncc1CN1CCN(S(=O)(=O)c2cnc(N3CCN4C(=O)OC[C@H]4C3)s2)CC1 [Compound 26]
21 | 0.0012 | > 10 | 3.56 | C[C@H](c1ccc(F)cc1)n1cncc1CN1CCN(S(=O)(=O)c2cnc(N3CC[C@@H]4NCCO[C@H]4C3)s2)CC1 [Compound 15]
22 | 0.0017 | 2.19 | 3.38 | C[C@H](c1ccc(F)cc1)n1cncc1CN1CCN(S(=O)(=O)c2cnc(NCC(F)CN)s2)CC1 (stereo partly drawn) [Compound 17]
23 | 0.0011 | > 10 | 5 | C[C@H](c1ccc(F)cc1)n1cncc1CN1CCN(S(=O)(=O)c2cnc(N3CCN4C[C@H](O)C[C@H]4C3=O)s2)CC1 [Compound 18]
24 | 0.0038 | > 10 | > 10 | C[C@H](c1ccc(F)cc1)n1cncc1CN1CCN(S(=O)(=O)c2cnc(N3CCN4C[C@H](O)C[C@H]4C3)s2)CC1 [Compound 5]
25 | 0.0018 | > 10 | > 10 | C[C@H](c1ccc(F)cc1)n1cncc1CN1CCN(S(=O)(=O)c2cnc(N3CCC(S(C)(=O)=O)C3)s2)CC1 (stereo partly drawn) [Compound 8]
26 | 0.0041 | 5.81 | > 10 | CC(c1cncn1[C@H](C)c1ccc(F)cc1)N1CCN(S(=O)(=O)c2cnc(N3CCN4C[C@H](O)C[C@H]4C3)s2)CC1 (stereo partly drawn) [Compound 37]
27 | 0.0023 | > 10 | 4.8 | CN1CCN(c2ncc(S(=O)(=O)N3CCN(Cc4cncn4CCOc4ccc(F)cn4)CC3)s2)CC1 [Compound 33]
28 | 0.0052 | 1.49 | > 10 | C[C@H](c1ccc(F)cc1)n1cncc1CN1CCN(S(=O)(=O)c2cnc(N3CC(=O)N4C[C@H](O)C[C@H]4C3)s2)CC1 [Compound 16]
29 | 0.008 | 3.73 | 2.18 | C[C@H](c1ccc(F)cc1)n1cncc1C1C(=O)OCC2CN(S(=O)(=O)c3cnc(Nc4ccc(C(F)(F)F)cn4)s3)CCN21 (stereo partly drawn) [Compound 39]
30 | 0.0013 | 8.66 | 3.65 | CC1CN2C[C@H](O)C[C@H]2CN1c1ncc(S(=O)(=O)N2CCN(Cc3cncn3[C@H](C)c3ccc(F)cc3)CC2)s1 (single isomer, unassigned) [Compound 22]

Source: US20140005103A1, “SULFONAMIDE DERIVATIVES AND METHODS OF USE THEREOF FOR IMPROVING THE PHARMACOKINETICS OF A DRUG” (Merck, Sharp & Dohme Corp., priority 2012, published 2014)
